Data published in US9452983B2, “Method for refining quinolinic acid” (CJ CHEILJEDANG CORP., priority 2013, dated 2016).

Test: Evaluation of solubility of quinolinic acid with respect to pH
Type: physicochemical
Settings: room temperature (about 23° C.), pH controlled using 28%-ammonia water and 98% sulfuric acid, FIG. 1
Procedure: Evaluation of solubility of Quinolinic Acid with Respect to pH
Solubility of quinolinic acid in water at room temperature (about 23° C.) with respect to pH was evaluated using a pure quinolinic acid reagent (Sigma-Aldrich Prod. No. P63204), wherein the pH was controlled using a 28%-ammonia water and 98% sulfuric acid).

For `O=C(O)c1cccnc1C(=O)O` [quinolinic acid], the “Solubility of quinolinic acid in water with respect to pH” value was “the lower the pH, the lower the solubility”.
